The record followed here is the supplement of paper PMC3493320.

The assay has as its system NCI-H295R. The assay is described as follows: IC50 (antiproliferative, ATP content). The settings on record: 48 h. In short, it runs like this: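 Cell viability of adrenocortical carcinoma cells was assessed as ATP by CellTiter-Glo luminescence. Cells at 1500 per well in 1536-well plates, in serum-free DMEM with ITS, received compounds by pin transfer at 8 final concentrations (0.6 nM–46 µM) after overnight culture and were then held 48 h at 37 °C, 5% CO2. IC50 was calculated by logistic fitting against vehicle and positive-control wells, compounds with no concentration response being recorded as above the top dose.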
With `C#CCN(C)Cc1ccccc1.Cl`, the IC50 was > 46 µM.
The result for `CN(Cc1ccccc1)Cc1ccccc1` reads > 46 µM.
The result for `O=C(O[C@@H]5C4CCN(C5)CC4)N2[C@@H]([C@]3=CC=CC=C3)C1=CC=CC=C1CC2.Cl` reads > 46 µM.
The result for `O=[C@](OCC2=C(F)C(F)=CC(F)=C2F)[C@H]1C(C)(C)[C@@H]1/C=C(Cl)/Cl` reads > 46 µM.
For `COc1cc2c(cc1OC)[C@@H](Cc1cc(OC)c(OC)c(OC)c1)[N+](C)(CCCOC(=O)CC/C=C/CCC(=O)OCCC[N+]1(C)CCc3cc(OC)c(OC)cc3[C@H]1Cc1cc(OC)c(OC)c(OC)c1)CC2.[Cl-].[Cl-]` (stereo partly specified), the IC50 is > 46 µM.
In the case of `FC(F)(F)c1ccccc1-n1ccnc1`, the IC50 is > 46 µM.
The result for `CN1[C@@H]2CC[C@H]1C[C@@H](OC(=O)c1c[nH]c3ccccc13)C2` reads > 46 µM; that for `CC(C)(C)NCC(O)c1ccc(O)c(CO)n1.Cl` (stereo unspecified), > 46 µM.
The result for `Cn1cnc2c1c(=O)[nH]c(=O)n2C` reads > 46 µM; that for `COc1ccc(C(=O)N2CCCC2=O)cc1`, > 46 µM.
The result for `CS(=O)(=O)OCC(O)C(O)COS(C)(=O)=O` (stereo unspecified) reads > 46 µM.
With `CN(C)CCN1C(=O)c2ccccc2N(C)c2ccccc21.Cl`, the IC50 is > 46 µM.
The figure for `O=C(O)CCC(=O)C(=O)O` is > 46 µM.
The figure for `Cl.NCCc1cc(O)c(O)cc1O` is > 46 µM.
As to `CC(N)C(=O)OC(C)(C)Cc1ccc(Cl)cc1` (stereo unspecified), the IC50 was > 46 µM.
In the case of `NS(=O)(=O)c1cc2c(cc1Cl)NC(C(Cl)Cl)NS2(=O)=O` (stereo unspecified), the IC50 is > 46 µM.
The result for `O=C(Oc1cccc2cccnc12)c1ccccc1` reads > 46 µM.
The result for `O=c1cc(O)c(Cl)c[nH]1` reads > 46 µM; that for `CCN(CC)C(=O)N[C@@H]1C=C2c3cccc4[nH]cc(c34)C[C@@H]2N(C)C1`, > 46 µM.
As to `CCCN[C@H]1CCc2nc(N)sc2C1`, the IC50 was > 46 µM.
The result for `CN1CCN(CCC(=O)N2c3ccccc3Sc3ccc(C(F)(F)F)cc32)CC1` reads > 46 µM; that for `Cl.O=C(CCCN1CCC(O)(c2cccc(C(F)(F)F)c2)CC1)c1ccc(F)cc1`, > 46 µM.
The result for `CCOC(=O)c1c(C)n(C)c2ccc(O)cc12` reads > 46 µM.
The result for `CC(=O)O.N=C(N)NCCC[C@H](NC(=O)[C@@H]1CCCN1C(=O)[C@@H]1CSSC[C@H](N)C(=O)N[C@@H](Cc2ccc(O)cc2)C(=O)N[C@@H](Cc2ccccc2)C(=O)N[C@@H](CCC(N)=O)C(=O)N[C@@H](CC(N)=O)C(=O)N1)C(=O)NCC(N)=O` reads > 46 µM; that for `CO[C@@H]1[C@H](OC(=O)/C=C/C=C/C=C/C=C/C(=O)O)CC[C@]2(CO2)[C@H]1[C@@]1(C)O[C@@H]1CC=C(C)C`, > 46 µM; that for `CCC(=O)NCC[C@@H]1CCc2ccc3c(c21)CCO3`, > 46 µM.
As to `O=C(OCc1ccccc1)c1cccnc1`, the IC50 is > 46 µM.
The figure for `Cc1cc(O)ccc1Cl` is > 46 µM.
Regarding `C#CCOC(C(=O)OCCN(C)C)(c1ccccc1)c1ccccc1.Cl`, the half-inhibitory concentration (IC50) is > 46 µM.
The result for `O=C1c2ccccc2S(=O)(=O)N1CCCCN1CCN(c2ncccn2)CC1` reads > 46 µM; that for `O=C1c2ccccc2C(=O)c2ccccc21`, > 46 µM; that for `C#CC(C)(O)CC` (stereo unspecified), > 46 µM.
The figure for `Cn1nnc2c(C(N)=O)ncn2c1=O` is > 46 µM.
The figure for `CC1=C[C@H](O)CC(C)(C)[C@H]1/C=C/C(C)=C/C=C/C(C)=C/C=C/C=C(C)/C=C/C=C(C)/C=C/C1=C(C)C[C@@H](O)CC1(C)C` is > 46 µM; for `Nc1ccn([C@@H]2O[C@H](CO)[C@@H](O)[C@@H]2O)c(=O)n1` it is > 46 µM.
Consider `CC(=O)CCC(=O)[O-].CC(=O)CCC(=O)[O-].O.O.[Ca+2]`, for which the IC50 is > 46 µM.

What is called IC50 is the concentration that gives 50% inhibition.
